Assays:
Assay type in all cases: cell-based
Hek293T = assay: Cytotoxicity in Hek293T (CellTiterGlo); settings: Homo sapiens, HEK-293T, 24 h after compound addition
Procedure: (§1) For examination of cytotoxicity in these cancer cell lines the commercial available CellTiterGlo® Reagent (Promega, USA) was used according to the manufactor.
(§2) Compounds were applied to Hek293T (denoted (a)) or HepG2 (denoted (b)), cultured in Dulbecco's Modified Eagles Medium, supplemented with 10% fetal calf serum and 1% penicillin/streptomycin. Cells were grown in T75 flasks at 37° C., 5% CO2 and trypsinized when 60-80% confluent by adding 2 ml of 0.25% Trypsin-EDTA solution. Cells were then re-suspended into culture medium yielding approx. 4000 cells (a) or 4500 cells (b), suspended in 30 microl medium. 48 h after cell seeding, compounds were added to yield the desired final concentrations. 24 h after compound addition cytotoxicity was evaluated. For this purpose the media was removed and CellTiterGlo® was added according to the manufactors manual. In this assay the luciferase emission readout is directly correlated with the cellular amount of ATP, low luciferase emission thus is reflecting cytotoxicity of a compound.

HepG2 = assay: Cytotoxicity in HepG2 (CellTiterGlo); settings: Homo sapiens, 24 h after compound addition
Procedure: as §1, §2

[1] = system: human fibroblasts (HS-68); assay: Cell line specific cytotoxicity, normal cells HS68 (nuclei count); settings: Hoechst labeled nuclei count, at least 72 hr
Procedure: For examination of cell line-specific cytotoxicity, compounds were applied to human colorectal cancer cells (HCT116, denoted (1); SW480, denoted (2); Dld-1, denoted (3)) and human fibroblasts (HS-68, denoted (4)), cultured in Mc Coy's ((1)) and Dulbecco's Modified Eagles Medium ((2)-(4)), supplemented with 10% ((1)-(3)) and 20% ((4)) fetal calf serum and 1% penicillin/streptomycin. Cells were grown in T75 flasks at 37° C., 5% CO2 and trypsinized when 60-80% confluent by adding 2 ml of 0.25% Trypsin-EDTA (ethylenediaminetetraacetic acid) solution. Cells were then re-suspended into culture medium yielding approx. 750 cells, suspended in 45 microl medium, were plated into each well of a black 384-well plate for fluorescence imaging experiments. […] Compound incubation was terminated by (a) fixation and (b) permeabilisation of cells, followed by (c) fluorescence labeling of cell nuclei for cytometric quantification or by immunocytochemistry for microscopic evaluation of cell morphology. […]
Cell line-specific cytotoxicity was quantified by counting the number of Hoechst labeled nuclei per well of a 384-well plate using a plate cytometer. Data obtained with the cytometer was analysed using standard data analysis software.
Identified hits were further evaluated by visual inspection of fluorescence micrographs obtained from imaging using a conventional fluorescence microscope.

SMILES | IC50 (Hek293T) | IC50 (HepG2) | IC50 [1]
C=CCOc1c(Br)cc(C2C(C(=O)OCC)=C(N)Oc3c2ccc2ccccc32)cc1OC (stereo not drawn) [(4), 4-(4-Allyloxy-3-bromo-5-methoxy-phenyl)-2-amino-4H-benzo[h]chromene-3-carboxylic acid ethyl ester] | > 90 µM | > 90 µM | –
CCOC(=O)C1=C(N)Oc2c(ccc3ccccc23)C1c1cc(Br)c(OC)c(OC)c1 (stereo not drawn) [(6), 2-Amino-4-(3-bromo-4,5-dimethoxy-phenyl)-4H-benzo[h]chromene-3-carboxylic acid ethyl ester] | > 90 µM | > 90 µM | –
COc1cc(C2C(C#N)=C(N)Oc3c2ccc2ccccc32)cc(Br)c1OC (stereo not drawn) [(1), 2-Amino-4-(3-bromo-4,5-dimethoxy-phenyl)-4H-benzo[h]chromene-3-carbonitrile] | > 90 µM | > 90 µM | –
COc1cc(C2C(C#N)=C(N)Oc3c2ccc2ccc(N)nc32)cc(Br)c1OC (racemic) [(20), 3,6-Diamino-1-(3-bromo-4,5-dimethoxy-phenyl)-1H-4-oxa-5-aza-phenanthrene-2-carbonitrile] | > 90 µM | 37 µM | –
COc1cc(C2C(C#N)=C(N)Oc3cc4ccccc4cc32)cc(Br)c1OC (stereo not drawn) [(30), 2-Amino-4-(3-bromo-4,5-dimethoxy-phenyl)-4H-benzo[g]chromene-3-carbonitrile] | > 90 µM | > 90 µM | –
COc1cc(C2C(C#N)=C(N)Oc3c2ccc2ccc(O)nc32)cc(Br)c1OC (stereo not drawn) [(19), 3-Amino-1-(3-bromo-4,5-dimethoxy-phenyl)-6-hydroxy-1H-4-oxa-5-aza-phenanthrene-2-carbonitrile] | > 90 µM | > 90 µM | –
N#CC1=C(N)Oc2cc3c(cc2C1c1cc(F)c(F)c(F)c1)OCO3 (stereo not drawn) [(39), 6-Amino-8-(3,4,5-trifluoro-phenyl)-8H-[1,3]dioxolo[4,5-g]chromene-7-carbonitrile] | > 90 µM | > 90 µM | > 90 µM
COc1cc(C2C(C#N)=C(N)Oc3c2ccc2ccc(C)nc32)cc(Br)c1OC (stereo not drawn) [(16), 3-Amino-1-(3-bromo-4,5-dimethoxy-phenyl)-6-methyl-1H-4-oxa-5-aza-phenanthrene-2-carbonitrile] | > 90 µM | > 90 µM | –
C=CCOc1c(Br)cc(C2C(C#N)=C(N)Oc3cc4c(cc32)OCO4)cc1OC (stereo not drawn) [(41), 8-(4-Allyloxy-3-bromo-5-methoxy-phenyl)-6-amino-8H-[1,3]dioxolo[4,5-g]chromene-7-carbonitrile] | > 90 µM | > 90 µM | –
COc1cc(C2C(C#N)=C(N(C)C)Oc3cc4ccccc4cc32)cc(Br)c1OC (stereo not drawn) [(31), 2-Dimethylamino-4-(3-bromo-4,5-dimethoxy-phenyl)-4H-benzo[g]chromene-3-carbonitrile] | > 90 µM | > 90 µM | –
COc1cc(C2C(C#N)=C(N)Oc3c2ccc2ncccc32)cc(Br)c1OC (stereo not drawn) [(18), 6-Amino-8-(3-bromo-4,5-dimethoxy-phenyl)-8H-5-oxa-1-aza-phenanthrene-7-carbonitrile] | > 90 µM | > 90 µM | –
N#CC1=C(N)Oc2c(ccc3ccccc23)C1c1cc(F)c(F)c(F)c1 (stereo not drawn) [(7), 2-Amino-4-(3,4,5-trifluoro-phenyl)-4H-benzo[h]chromene-3-carbonitrile] | > 90 µM | > 90 µM | –
C=CCOc1c(Br)cc(C2C(C(=O)OCC)=C(N)Oc3cc4c(cc32)OCO4)cc1OC (stereo not drawn) [(42), 8-(4-Allyloxy-3-bromo-5-methoxy-phenyl)-6-amino-8H-[1,3]dioxolo[4,5-g]chromene-7-carboxylic acid ethyl ester] | > 90 µM | > 90 µM | –
N#CC1=C(N)Oc2cc3ccccc3cc2C1c1cc(F)c(F)c(F)c1 (stereo not drawn) [(28), 2-amino-4-(3,4,5-trifluoro-phenyl)-4H-benzo[g]chromene-3-carbonitrile] | > 90 µM | 31.7 µM | –
N#CC1=C(N)Oc2cc3ccccc3cc2C1c1cc(F)c(N2CCCCC2)c(F)c1 (stereo not drawn) [(29), 2-amino-4-(3,5-difluoro-4-piperidin-1-yl-phenyl)-4H-benzo[g]chromene-3-carbonitrile] | > 90 µM | 42.5 µM | –
COc1cc(C2C(C#N)=C(N)Oc3c2c(O)nc2ccccc32)cc(Br)c1OC (stereo not drawn) [(17), 2-Amino-4-(3-bromo-4,5-dimethoxy-phenyl)-5-hydroxy-4H-pyrano[3,2-c]quinoline-3-carbonitrile] | > 90 µM | > 90 µM | > 90 µM
CCOC(=O)C1=C(N)Oc2cc3c(cc2C1c1cc(F)c(F)c(F)c1)OCO3 (stereo not drawn) [(40), 6-Amino-8-(3,4,5-trifluoro-phenyl)-8H-[1,3]dioxolo[4,5-g]chromene-7-carboxylic acid ethyl ester] | > 90 µM | > 90 µM | –
